Reference: patent US4026888A, “Certain derivatives of particular 3-thiolated cephalosporins” (priority 1976, dated 1977)
≈ marks a conversion by molar mass, not a printed value. Like-named read-outs stand apart in the source and are kept apart here.

Key:
[1] = test system: Str. pneumoniae A9585; assay: Antibiotic activity in nutrient broth (MIC); format: cell-based; settings: Streptococcus pneumoniae, A9585, inoculum 10^-3 dilution of overnight broth culture; 45% AAB + 5% serum + 50% broth; derivatives adjusted for BL-S640 content
Source text: (§1) Antibiotic Activity In Nutrient Broth
(§2) * 45% AAB+ 5% serum+ 50% broth listed above.
(§3) ** Dilution of overnight broth culture.
(§4) Antibiotic Spectrum Nutrient Broth
(§5) * 45% AAB + 5% serum + 50% broth
(§6) Antibiotic Spectrum in Nutrient Broth
(§7) *45% AAB + 5% serum + 50% broth listed above.

[2] = test system: Str. pyogenes A9604; assay: Antibiotic activity in nutrient broth (MIC); format: cell-based; settings: Streptococcus pyogenes, A9604, inoculum 10^-3; 45% AAB + 5% serum + 50% broth; derivatives adjusted for BL-S640 content; read-out: MIC
Source text: as §1, §2, §3, §4, §5, §6, §7

[3] = test system: E. coli A9675; assay: Antibiotic activity in nutrient broth (MIC); format: cell-based; settings: Escherichia coli, A9675, inoculum 10^-4; derivatives adjusted for BL-S640 content; read-out: MIC
Source text: as §1, §3, §4, §6

[4] = test system: E. coli Juhl A15119; assay: Antibiotic activity in nutrient broth (MIC); format: cell-based; settings: Escherichia coli, JUHLA15119, inoculum 10^-4; derivatives adjusted for BL-S640 content; read-out: MIC
Source text: as §1, §3, §4, §6

[5] = test system: Ent. cloacae A9656; assay: Antibiotic activity in nutrient broth (MIC); format: cell-based; settings: Enterobacter cloacae, A9656, inoculum 10^-4; derivatives adjusted for BL-S640 content
Source text: as §1, §3, §4, §6

[6] = test system: Ent. cloacae A9657; assay: Antibiotic activity in nutrient broth (MIC); format: cell-based; settings: Enterobacter cloacae, A9657, inoculum 10^-4; derivatives adjusted for BL-S640 content; read-out: MIC
Source text: as §1, §3, §4, §6

[7] = test system: Ent. cloacae A9659; assay: Antibiotic activity in nutrient broth (MIC); format: cell-based; settings: Enterobacter cloacae, A9659, inoculum 10^-4; derivatives adjusted for BL-S640 content; read-out: MIC
Source text: as §1, §3, §4, §6

[8] = test system: K. pneumoniae A15130; assay: Antibiotic activity in nutrient broth (MIC); format: cell-based; settings: Klebsiella pneumoniae, A15130, inoculum 10^-4; derivatives adjusted for BL-S640 content; read-out: MIC
Source text: as §1, §3, §4, §6

[9] = test system: K. pneumoniae A9977; assay: Antibiotic activity in nutrient broth (MIC); format: cell-based; settings: Klebsiella pneumoniae, inoculum 10^-4, derivatives adjusted for BL-S640 content, read-out: MIC
Source text: as §1, §3, §4, §6

[10] = test system: Pr. mirabilis A9900; assay: Antibiotic activity in nutrient broth (MIC); format: cell-based; settings: Proteus mirabilis, inoculum 10^-4, derivatives adjusted for BL-S640 content
Source text: as §1, §3, §4, §6

[11] = test system: Pr. morganii A15153; assay: Antibiotic activity in nutrient broth (MIC); format: cell-based; settings: Morganella morganii, A15153, inoculum 10^-4; derivatives adjusted for BL-S640 content; read-out: MIC
Source text: as §1, §3, §4, §6

[12] = test system: Ps. aeruginosa A9843A; assay: Antibiotic activity in nutrient broth (MIC); format: cell-based; settings: Pseudomonas aeruginosa
Source text: as §1, §3, §4, §6

[13] = test system: S. aureus BX1633 A9606; assay: Antibiotic activity in nutrient broth (MIC); format: cell-based; settings: Staphylococcus aureus, derivatives adjusted for BL-S640 content, read-out: MIC
Source text: as §1, §3, §4, §6

[14] = test system: S. aureus Meth-Res A15097; assay: Antibiotic activity in nutrient broth (MIC); format: cell-based; settings: inoculum 10^-3, Meth-Res, derivatives adjusted for BL-S640 content
Source text: as §1, §3, §4, §6

[15] = test system: S. aureus Smith A9537; assay: Antibiotic activity in nutrient broth (MIC); format: cell-based; settings: derivatives adjusted for BL-S640 content
Source text: as §1, §3, §4, §6

[16] = test system: Sal. enteritidis A9531; assay: Antibiotic activity in nutrient broth (MIC); format: cell-based; settings: Salmonella enterica, ENTERITIDIS, inoculum 10^-4; derivatives adjusted for BL-S640 content; read-out: MIC
Source text: as §1, §3, §4, §6

[17] = test system: Ser. marcescens A20019; assay: Antibiotic activity in nutrient broth (MIC); format: cell-based; settings: derivatives adjusted for BL-S640 content
Source text: as §1, §3, §4, §6

[18] = Mouse blood levels after oral administration; format: in vivo; settings: for Blood Level: listed as Compound of Ex. 1, 100 mg/kg; for concentration at 0.5 h / concentration at 1 h / concentration at 2 h / concentration at 3.5 h: mouse, blood, po, 100 mg/kg
Procedure: Mouse Blood Levels After Oral
Administration Of 100 mg./kg. Body Weight
The compounds were prepared in
Tween - carboxymethylcellulose
and 8 mice were used for each
Mouse Blood Levels After PO
Administration of 100 mg./kg. Body Weight
The compounds were prepared in Tween-CMC. BL-S640
The compounds were prepared in Tween-CMC. Values are the average of two

[19] = Urinary recovery after IM administration to rats; format: in vivo; settings: rat, urine, read-out: Urinary Recovery, Percentage of Administered Dose Recovered; for dose excreted at 6 h: 0-6 hr
Procedure: Urinary Recovery After IM
Administration of 50 and 10 mg./kg. to Rats
The compounds were prepared in 0.01% phosphate buffer. BL-S640 was used as
Urinary Recovery after IM
Administration of 50 mg./kg. to Rats
The compounds were prepared in 0.01% phosphate buffer.

[20] = Paper chromatography of rat urine for antibiotically active metabolites; format: in vivo; settings: IM; rat urine 0-2 and 2-4 hours
Procedure: Paper chromatograms were run on rat urine collected between 0 and 2 and between 2 and 4 hours following IM administration of BL-S1055 and 640, for the detection of antibiotically active metabolites using descending chromatography with system No. 9 (butyl acetate:n-butanol:glacial acetic acid:H2 O= 80:15:40:24).

[21] = test system: P. mirabilis A9900; assay: Oral PD50 in mice; format: in vivo; settings: Proteus mirabilis, A9900, po, 3.5 h, oral; mice treated at 1 and 3.5 hours post-challenge; read-out: PD50
[22] = test system: P. mirabilis A9900; assay: IM PD50 in mice; format: in vivo; settings: Proteus mirabilis
Source text: Comparative IM PD50 Values of
BL-S640 Derivatives in Mice

SMILES: O=C(O)C1=C(CSc2cnn[nH]2)CS[C@@H]2[C@H](N3C(=O)[C@@H](c4ccc(O)cc4)NC3c3ccc(S(=O)(=O)O)o3)C(=O)N12 (stereo partly shown) [BL-S1027]
- MIC [1]: 0.03 µg/mL
- MIC [2]: 0.03 µg/mL
- MIC [3]: 4 µg/mL (≈ 6.44 µM)
- MIC [4]: 1 µg/mL (≈ 1.61 µM)
- MIC [5]: > 125 µg/mL
- MIC [6]: 1 µg/mL (≈ 1.61 µM)
- MIC [7]: 32 µg/mL (≈ 51.6 µM)
- MIC [8]: 1 µg/mL (≈ 1.61 µM)
- MIC [9]: 0.5 µg/mL (≈ 0.806 µM)
- MIC [10]: 0.5 µg/mL (≈ 0.806 µM)
- MIC [11]: 32 µg/mL (≈ 51.6 µM)
- MIC [12]: > 125 µg/mL
- MIC ([13]; BX1633A9606, inoculum 10^-2): 4 µg/mL (≈ 6.44 µM)
- MIC ([13]; BX1633A9606, inoculum 10^-3): 0.5 µg/mL (≈ 0.806 µM)
- MIC ([14]; Staphylococcus aureus, read-out: MIC): 4 to 8 µg/mL (≈ 6.44 to 12.9 µM)
- MIC [14]: 4 µg/mL (≈ 6.44 µM)
- MIC ([15]; Staphylococcus aureus, SMITHA9537, inoculum 10^-4, + 50% serum, read-out: MIC): 2 µg/mL
- MIC ([15]; Staphylococcus aureus, SMITHA9537, inoculum 10^-4, nutrient broth, read-out: MIC): 0.27 µg/mL (≈ 0.435 µM)
- MIC ([15]; inoculum 10^-4, nutrient broth): 0.25 µg/mL (≈ 0.403 µM)
- MIC [16]: 0.25 µg/mL (≈ 0.403 µM)
- MIC ([17]; Serratia marcescens, A20019, inoculum 10^-4): > 125 µg/mL
- MIC ([17]; inoculum 10^-4): 125 µg/mL (≈ 201 µM)
- Blood Level ([18]; Table II, oral 100 mg./kg., 0.5 hr, Tween-carboxymethylcellulose, 8 mice, 30 min): 54600 ng/mL
- Blood Level ([18]; Table II, oral 100 mg./kg., 1 hr, Tween-carboxymethylcellulose, 8 mice, 60 min): 53500 ng/mL
- Blood Level ([18]; Table II, oral 100 mg./kg., 2 hr, Tween-carboxymethylcellulose, 8 mice, 120 min): 27600 ng/mL
- Blood Level ([18]; Table II, oral 100 mg./kg., 3.5 hr, Tween-carboxymethylcellulose, 8 mice, 210 min): 8200 ng/mL
- concentration at 0.5 h ([18]; Example 2, PO 100 mg./kg., 0.5 hr, Tween-CMC, 16 or 32 mice, read-out: Blood Levels): 49800 ng/mL
- concentration at 1 h ([18]; Example 2, PO 100 mg./kg., 1 hr, Tween-CMC, 16 or 32 mice, read-out: Blood Levels): 45100 ng/mL
- concentration at 2 h ([18]; Example 2, PO 100 mg./kg., 2 hr, Tween-CMC, 16 or 32 mice, read-out: Blood Levels): 24000 ng/mL
- concentration at 3.5 h ([18]; Example 2, PO 100 mg./kg., 3.5 hr, Tween-CMC, 16 or 32 mice, read-out: Blood Levels): 9300 ng/mL
- concentration at 0.5 h ([18]; Table II, oral 100 mg./kg., 0.5 hr, Tween-carboxymethylcellulose, 8 mice, read-out: Blood Level): 45000 ng/mL
- concentration at 1 h ([18]; Table II, oral 100 mg./kg., 1 hr, Tween-carboxymethylcellulose, 8 mice, read-out: Blood Level): 36600 ng/mL
- concentration at 2 h ([18]; Table II, oral 100 mg./kg., 2 hr, Tween-carboxymethylcellulose, 8 mice, read-out: Blood Level): 20400 ng/mL
- concentration at 3.5 h ([18]; Table II, oral 100 mg./kg., 3.5 hr, Tween-carboxymethylcellulose, 8 mice, read-out: Blood Level): 10400 ng/mL
- Mouse blood levels, oral, compared with BL-S640 propylene glycol adduct ([18]; oral, in words): approximately equal
- dose excreted at 6 h ([19]; 10 mg/kg, IM 10 mg./kg.): 30.1%
- dose excreted at 24 h ([19]; 10 mg/kg, IM 10 mg./kg., 0-24 hr): 31.8%
- dose excreted at 24 h ([19]; 10 mg/kg, IM 10 mg./kg., 6-24 hr): 1.7%
- dose excreted at 6 h ([19]; 50 mg/kg, IM 50 mg./kg.): 39.6%
- dose excreted at 24 h ([19]; 50 mg/kg, IM 50 mg./kg., 0-24 hr): 42.2%
- dose excreted at 24 h ([19]; 50 mg/kg, IM 50 mg./kg., 6-24 hr): 2.6%
- Hydrolysis to the parent compound (BL-S640) [20]: complete hydrolysis
- ED50 [21]: 6.3 mg/kg
- ED50 [22]: 1.6 mg/kg
- free BL-S640 by liquid chromatography (1 mg./ml. in pH 7 phosphate buffer, 0 time): 85%
- Form in solution by paper strip and liquid chromatography (0.2 and 1.0 mg./ml. in water): exists as free BL-S640
